# ± gives the standard deviation of the averaged measurements.
# Tests used:
# Test in all cases: level (log10 ratio to DMSO vehicle control); higher = higher biomarker level / cell amount than vehicle control
# Details in all cases: in DMSO
# [1] = compound: O=C(O)C(F)(F)C(F)(F)C(F)(F)C(F)(F)C(F)(F)C(F)(F)C(F)(F)C(F)(F)C(F)(F)C(F)(F)C(F)(F)C(F)(F)F [Perfluorotridecanoic acid]
# Procedure: (§1)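 BioMAP Diversity Plus panel of 12 human primary cell co-culture systems (3C, 4H, LPS, SAg, BT, BF4T, BE3C, CASM3C, HDF3CGF, KF3CT, MyoF, Mphg). Compounds were added 1 h before stimulation and left for 24 h (MyoF 48 h; BT 72 h for soluble read-outs or 6 d for IgG). Biomarkers were read by ELISA, cytotoxicity by SRB, PBMC viability and proliferation by Alamar Blue. Each well value was divided by the mean of 8 DMSO control wells on the same plate and log10 transformed; duplicate blinded samples were tested at 4 concentrations.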
# [2] = compound: CNS(=O)(=O)C(F)(F)C(F)(F)C(F)(F)C(F)(F)C(F)(F)C(F)(F)C(F)(F)C(F)(F)F [N-Methylperfluorooctanesulfonamide]
# Procedure: as §1
# Azathioprine = compound: Cn1cnc([N+](=O)[O-])c1Sc1ncnc2[nH]cnc12 [Azathioprine]
# Procedure: as §1
# [3] = compound: O=C(O)C(F)(F)OC(F)(F)C(F)(F)OC(F)(F)C(F)(F)C(F)(F)C(F)(F)F [Perfluoro-3,6-dioxadecanoic acid]
# Procedure: as §1
# [4] = compound: O=S(=O)(O)C(F)(F)C(F)(F)C(F)(F)C(F)(F)C(F)(F)C(F)(F)C(F)(F)C(F)(F)F [Perfluorooctanesulfonic acid]
# Procedure: as §1
# Hexafluoroglutaric acid = compound: O=C(O)C(F)(F)C(F)(F)C(F)(F)C(=O)O [Hexafluoroglutaric acid]
# Procedure: as §1
Test System,level (log10) ([1]; 1500 nM),level (log10) ([1]; 4400 nM),level (log10) ([1]; 13000 nM),level (log10) ([1]; 40000 nM),level (log10) ([2]; 6700 nM),level (log10) ([2]; 20000 nM),level (log10) ([2]; 60000 nM),level (log10) (Azathioprine; 1400 nM),level (log10) (Azathioprine; 4200 nM),level (log10) (Azathioprine; 13000 nM),level (log10) (Azathioprine; 38000 nM),level (log10) ([3]; 6700 nM),level (log10) ([3]; 20000 nM),level (log10) ([3]; 60000 nM),level (log10) ([4]; 6700 nM),level (log10) ([4]; 20000 nM),level (log10) ([4]; 60000 nM),level (log10) (Hexafluoroglutaric acid; 6700 nM),level (log10) (Hexafluoroglutaric acid; 20000 nM),level (log10) (Hexafluoroglutaric acid; 60000 nM)
CASM3C:CD87/uPAR,0.0185 ± 0.011,0.028 ± 0.0014,-0.01 ± 0.013,0.0015 ± 0.019,-0.0035 ± 0.0064,-0.0255 ± 0.022,-0.0495 ± 0.013,0.0115 ± 0.0021,0.014 ± 0.0099,-0.002 ± 0.067,-0.0325 ± 0.0035,0.001 ± 0.0014,-0.0055 ± 0.0064,-0.0175 ± 0.025,-0.0005 ± 0.0078,-0.0085 ± 0.015,-0.016 ± 0.016,-0.001 ± 0.014,-0.0185 ± 0.033,-0.0075 ± 0.0035
CASM3C:CD106/VCAM-1,-0.017 ± 0.05,-0.0515 ± 0.015,-0.167 ± 0.083,-0.22 ± 0.054,-0.088 ± 0.044,-0.14 ± 0.061,-0.0895 ± 0.06,-0.0125 ± 0.022,-0.0155 ± 0.0092,-0.0485 ± 0.018,-0.136 ± 0.023,0.001 ± 0.011,-0.0145 ± 0.0092,0.0065 ± 0.037,-0.035 ± 0.0028,-0.038 ± 0.016,-0.104 ± 0.041,-0.0105 ± 0.03,-0.0125 ± 0.036,0.012 ± 0.011
CASM3C:CD141/Thrombomodulin,0.0215 ± 0.11,-0.0185 ± 0.084,0.03 ± 0.062,0.193 ± 0.015,0.0085 ± 0.019,-0.028 ± 0.057,-0.002 ± 0.044,-0.004 ± 0.011,-0.057 ± 0.035,-0.043 ± 0.025,-0.0405 ± 0.1,-0.022,-0.0225 ± 0.00071,0.0315 ± 0.046,-0.007 ± 0.0085,-0.0115 ± 0.0078,-0.017 ± 0.031,-0.008 ± 0.0099,-0.0175 ± 0.0021,0.043 ± 0.065
CASM3C:CD142/Tissue Factor,-0.004 ± 0.064,0.002 ± 0.024,-0.0025 ± 0.018,-0.012 ± 0.034,-0.025 ± 0.037,-0.0115 ± 0.005,0.019 ± 0.011,-0.0115 ± 0.015,-0.026 ± 0.034,-0.0345 ± 0.021,-0.0295 ± 0.025,0.001,-0.008 ± 0.0042,0.0105 ± 0.052,-0.035 ± 0.02,-0.033 ± 0.048,-0.0525 ± 0.09,0.003 ± 0.033,0.0015 ± 0.005,0.0185 ± 0.021
CASM3C:CXCL8/IL-8,0.002 ± 0.037,-0.003 ± 0.025,-0.014 ± 0.037,-0.0155 ± 0.0021,-0.003 ± 0.017,0.012 ± 0.025,0.035 ± 0.021,-0.0095 ± 0.0064,-0.023 ± 0.0085,-0.023 ± 0.0057,-0.009 ± 0.024,-0.0005 ± 0.013,-0.008,0.023 ± 0.028,0.001 ± 0.038,0.0045 ± 0.025,0.0485 ± 0.0021,-0.002 ± 0.017,-0.016 ± 0.014,0.0075 ± 0.0064
CASM3C:CXCL9/MIG,0.013 ± 0.044,-0.006 ± 0.017,-0.054 ± 0.018,-0.0405 ± 0.054,-0.0675 ± 0.026,-0.086 ± 0.0085,-0.05 ± 0.045,0.012 ± 0.033,-0.0135 ± 0.005,0.008 ± 0.0057,0.0525 ± 0.042,-0.006 ± 0.0085,-0.0045 ± 0.015,0.0155 ± 0.06,-0.0085 ± 0.00071,-0.003 ± 0.0014,0.0705 ± 0.032,-0.0195 ± 0.019,-0.02 ± 0.0085,0.022 ± 0.033
CASM3C:HLA-DR,0.0015 ± 0.0092,-0.0285 ± 0.035,-0.0385 ± 0.013,-0.085 ± 0.062,-0.0525 ± 0.039,-0.0875 ± 0.011,-0.0315 ± 0.079,-0.0165 ± 0.0021,-0.0115 ± 0.026,-0.0405 ± 0.011,-0.055 ± 0.031,0.002 ± 0.03,0.0015 ± 0.011,0.0245 ± 0.026,-0.0365 ± 0.012,-0.0465 ± 0.016,-0.0395 ± 0.052,0.0165 ± 0.049,-0.015 ± 0.045,0.0055 ± 0.019
CASM3C:IL-6,0.005 ± 0.062,-0.047 ± 0.0028,-0.059 ± 0.028,-0.0815 ± 0.08,-0.0605 ± 0.036,-0.066 ± 0.02,-0.0025 ± 0.035,0.011 ± 0.051,-0.045 ± 0.0057,-0.051 ± 0.0085,-0.042 ± 0.072,-0.0205 ± 0.005,-0.0205 ± 0.0021,-0.0085 ± 0.03,-0.0375 ± 0.0078,-0.0465 ± 0.005,-0.061 ± 0.099,-0.0175 ± 0.0035,-0.015 ± 0.021,0.022 ± 0.082
CASM3C:LDLR,-0.001 ± 0.013,0.013 ± 0.02,0.0105 ± 0.025,-0.021 ± 0.0028,0.002 ± 0.013,-0.0385 ± 0.059,0.0025 ± 0.0092,-0.0055 ± 0.018,-0.01 ± 0.0085,-0.024 ± 0.023,-0.034 ± 0.011,0.0015 ± 0.022,-0.016 ± 0.0028,-0.0065 ± 0.023,-0.002 ± 0.0085,-0.007 ± 0.0014,-0.0165 ± 0.032,-0.009 ± 0.0099,-0.0175 ± 0.026,-0.015 ± 0.014
CASM3C:M-CSF,0.0075 ± 0.054,0.0255 ± 0.005,0.0565 ± 0.039,0.095 ± 0.0085,0 ± 0.016,0.0105 ± 0.077,0.0575 ± 0.042,0.0065 ± 0.00071,-0.0255 ± 0.018,-0.0305 ± 0.0064,-0.007 ± 0.038,-0.0055 ± 0.035,-0.024 ± 0.0057,0.0115 ± 0.073,-0.0135 ± 0.016,0.009 ± 0.0028,-0.009 ± 0.03,-0.0135 ± 0.022,-0.0185 ± 0.033,0.018 ± 0.018
CASM3C:PAI-I,0.005 ± 0.0085,0 ± 0.011,0.0135 ± 0.013,0.01 ± 0.0057,0.011 ± 0.0042,0.0075 ± 0.012,0.0085 ± 0.012,-0.0045 ± 0.0021,0.007 ± 0.0057,0.007 ± 0.0014,0.01 ± 0.0042,0.001 ± 0.0042,0.003 ± 0.0071,0.011 ± 0.011,-0.001 ± 0.0071,0 ± 0.0014,0.0095 ± 0.0021,-0.0015 ± 0.015,-0.0005 ± 0.0064,0.0075 ± 0.0064
CASM3C:Proliferation,0.02 ± 0.016,-0.0055 ± 0.036,0.0085 ± 0.026,-0.013 ± 0.0014,0.015 ± 0.031,-0.006 ± 0.035,-0.0605 ± 0.094,-0.0225 ± 0.037,-0.0225 ± 0.005,-0.0785 ± 0.012,-0.147 ± 0.028,0.0135 ± 0.0035,-0.0165 ± 0.029,0.0015 ± 0.018,0.006 ± 0.042,0.0055 ± 0.022,0.057 ± 0.02,-0.015 ± 0.083,-0.029 ± 0.0071,0.004 ± 0.0071
CASM3C:SRB,0.0075 ± 0.016,0.005 ± 0.0042,-0.002 ± 0.0014,-0.0065 ± 0.00071,0.01 ± 0.0014,-0.0015 ± 0.0021,0.002 ± 0.0028,0.0015 ± 0.0092,0.003 ± 0.0057,-0.013 ± 0.0014,-0.0365 ± 0.0078,0.003 ± 0.0071,-0.0025 ± 0.0092,-0.0005 ± 0.0092,0.003 ± 0.0042,0.0005 ± 0.0064,0.0095 ± 0.011,-0.001 ± 0.0028,-0.0035 ± 0.0021,0.0065 ± 0.005
CASM3C:Serum Amyloid A,0.0495 ± 0.086,0.074 ± 0.052,0.181 ± 0.075,0.157 ± 0.11,0.0135 ± 0.0078,0.0445 ± 0.0078,0.073 ± 0.041,0.033 ± 0.021,-0.0125 ± 0.0021,-0.031 ± 0.0085,-0.0485 ± 0.066,0.012 ± 0.025,-0.004 ± 0.023,0.0405 ± 0.0021,0.0035 ± 0.0021,-0.017 ± 0.0014,-0.005 ± 0.04,0.0395 ± 0.049,0.027 ± 0.018,0.0085 ± 0.019

# — the supplement of paper PMC10331698
